Tested on: DOX aptamer (DNA, aptamer) ACCATCTGTGTAAGGGGTAAGGGGTGGT
Experiment: electrochemical aptasensor, SWV, Langmuir isotherm fit
Settings: PBS 0.1 M (Na+/K+ concentrations not given), PBS pH 7.4, room temperature, 20 min incubation, immobilised aptamer

apparent dissociation constant: 2.55 µM
Structure (SMILES): COc1cccc2c1C(=O)c1c(O)c3c(c(O)c1C2=O)C[C@@](O)(C(=O)CO)C[C@@H]3O[C@H]1C[C@H](N)[C@H](O)[C@H](C)O1

From publication PMC10096947 (2023)
